In US20050095240A1, “NaCT as a target for lifespan expansion and weight reduction” (Medical College of Georgia Research, priority 2002, published 2005):

Legend:
human NaCT = human NaCT (Homo sapiens, UniProt Q86YT5); assay: Uptake via human NaCT expressed in HRPE cells; format: cell-based; conditions: for [^14C]-Citrate Uptake (cDNA-specific) / [^14C]-Citrate Uptake, %: [14C]-citrate 20 μM, unlabeled compound 2.5 mM; for [^14C]-Citrate Uptake, %: none = 100
ceNaCT = molecular target: T1, ceNaCT (Caenorhabditis elegans, UniProt P32739, I91S/L182M); assay: ceNaCT in X. laevis oocytes: uptake and two-electrode voltage clamp; format: cell-based
T1 sequence (P32739 1-551 I91S/L182M): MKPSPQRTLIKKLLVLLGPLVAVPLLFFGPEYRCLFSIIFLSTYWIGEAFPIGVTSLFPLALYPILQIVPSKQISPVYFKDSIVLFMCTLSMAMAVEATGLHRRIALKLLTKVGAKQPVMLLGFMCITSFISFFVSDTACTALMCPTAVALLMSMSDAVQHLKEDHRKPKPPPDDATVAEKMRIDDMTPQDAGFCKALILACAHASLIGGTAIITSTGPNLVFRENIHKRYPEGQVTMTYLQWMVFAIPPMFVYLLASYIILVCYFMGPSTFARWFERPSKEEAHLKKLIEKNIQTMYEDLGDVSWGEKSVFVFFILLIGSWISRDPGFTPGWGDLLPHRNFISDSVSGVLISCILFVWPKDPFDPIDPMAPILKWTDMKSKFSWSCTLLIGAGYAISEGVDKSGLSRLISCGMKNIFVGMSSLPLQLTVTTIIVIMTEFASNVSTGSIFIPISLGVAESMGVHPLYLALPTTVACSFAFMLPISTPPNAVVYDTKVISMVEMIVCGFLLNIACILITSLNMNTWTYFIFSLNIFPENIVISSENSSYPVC
Excerpt: Electrophysiological studies of ceNaCT transport activity. Initially, ceNaCT cRNA prepared from the pSPORT-ceNaCT cDNA construct was used for functional expression of the transporter in X. laevis oocytes. These initial attempts were unsuccessful. Therefore, a X. laevis oocyte expression vector was used. The coding sequence of ceNaCT cDNA was amplified by PCR using the following primers: 5′-[…]-3′ (SEQ ID NO:23) (forward primer) and 5′-[…]-3′ (SEQ ID NO:24) (reverse primer). The forward primer contained the start codon and also an Xma I site introduced at the 5′-end for the purpose of subcloning. The reverse primer contained the termination codon and also a BamH I site at the 5′end for the purpose of subcloning. The PCR-derived ceNaCT coding fragment was then inserted into the Xma I/BamH I site in the oocyte expression vector pGHl9.

drIndy = drIndy (Drosophila melanogaster, UniProt Q9VVT2); conditions: succinate 0.1 μM
Sequence of drIndy (Q9VVT2 19-590): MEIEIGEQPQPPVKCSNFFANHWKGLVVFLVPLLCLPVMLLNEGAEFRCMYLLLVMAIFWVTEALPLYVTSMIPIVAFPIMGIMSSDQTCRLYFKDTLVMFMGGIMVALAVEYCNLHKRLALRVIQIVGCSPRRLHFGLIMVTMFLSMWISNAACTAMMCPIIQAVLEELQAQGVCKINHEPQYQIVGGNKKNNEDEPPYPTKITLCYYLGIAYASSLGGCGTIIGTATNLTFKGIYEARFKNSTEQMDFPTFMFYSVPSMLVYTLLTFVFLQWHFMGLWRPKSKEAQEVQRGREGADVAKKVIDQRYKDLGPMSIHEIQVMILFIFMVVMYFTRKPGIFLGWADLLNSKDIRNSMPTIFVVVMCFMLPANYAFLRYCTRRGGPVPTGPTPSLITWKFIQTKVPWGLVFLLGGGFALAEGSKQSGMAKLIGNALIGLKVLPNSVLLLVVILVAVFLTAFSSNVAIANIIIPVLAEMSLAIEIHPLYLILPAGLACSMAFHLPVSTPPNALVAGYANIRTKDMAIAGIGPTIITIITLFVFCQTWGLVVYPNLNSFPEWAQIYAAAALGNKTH

rat NaDC3 = molecular target: T2, rat NaDC3 (Rattus norvegicus, UniProt Q9Z0Z5); conditions: medium with 135 μM citrate and 40 μM succinate
T2 sequence (Q9Z0Z5 1-600): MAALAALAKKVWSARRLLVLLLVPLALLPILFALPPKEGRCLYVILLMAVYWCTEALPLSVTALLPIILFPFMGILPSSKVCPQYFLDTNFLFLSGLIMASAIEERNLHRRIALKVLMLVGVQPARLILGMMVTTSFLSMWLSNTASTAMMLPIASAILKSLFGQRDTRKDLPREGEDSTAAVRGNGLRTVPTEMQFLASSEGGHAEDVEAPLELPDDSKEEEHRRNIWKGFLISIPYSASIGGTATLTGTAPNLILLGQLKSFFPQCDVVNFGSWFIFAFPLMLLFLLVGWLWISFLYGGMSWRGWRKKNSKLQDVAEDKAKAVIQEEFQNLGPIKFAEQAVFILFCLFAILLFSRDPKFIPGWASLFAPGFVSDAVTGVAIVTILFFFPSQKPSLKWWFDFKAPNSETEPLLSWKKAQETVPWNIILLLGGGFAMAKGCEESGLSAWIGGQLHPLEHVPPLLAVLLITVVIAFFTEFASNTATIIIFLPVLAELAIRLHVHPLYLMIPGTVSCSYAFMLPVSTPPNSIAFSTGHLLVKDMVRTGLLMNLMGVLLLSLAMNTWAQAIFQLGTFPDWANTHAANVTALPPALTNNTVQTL

hNaDC3 = molecular target: T3, hNaDC3 (Homo sapiens, UniProt Q8WWT9); conditions: read-out: Km for succinate, hNaDC3; as determined by Wang et al.; cited from earlier work
T3 sequence (Q8WWT9 1-602): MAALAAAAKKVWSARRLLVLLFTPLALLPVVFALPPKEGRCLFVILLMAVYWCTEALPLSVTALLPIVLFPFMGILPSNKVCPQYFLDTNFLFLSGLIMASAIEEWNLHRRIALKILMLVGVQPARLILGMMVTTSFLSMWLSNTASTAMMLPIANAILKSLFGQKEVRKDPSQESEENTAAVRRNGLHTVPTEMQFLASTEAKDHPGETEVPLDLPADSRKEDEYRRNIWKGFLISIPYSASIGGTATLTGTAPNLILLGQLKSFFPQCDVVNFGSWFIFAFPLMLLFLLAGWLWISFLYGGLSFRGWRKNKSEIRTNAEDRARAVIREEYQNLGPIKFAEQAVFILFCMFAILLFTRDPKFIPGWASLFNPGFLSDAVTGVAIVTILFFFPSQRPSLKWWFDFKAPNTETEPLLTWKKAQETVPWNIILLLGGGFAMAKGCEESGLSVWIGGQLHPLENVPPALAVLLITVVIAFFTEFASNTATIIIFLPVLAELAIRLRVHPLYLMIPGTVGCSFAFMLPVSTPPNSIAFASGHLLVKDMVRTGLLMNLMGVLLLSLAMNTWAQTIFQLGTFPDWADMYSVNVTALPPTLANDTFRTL

NaDC3 = conditions: cited from earlier work

Sequence of human NaCT (Q86YT5 whole entry): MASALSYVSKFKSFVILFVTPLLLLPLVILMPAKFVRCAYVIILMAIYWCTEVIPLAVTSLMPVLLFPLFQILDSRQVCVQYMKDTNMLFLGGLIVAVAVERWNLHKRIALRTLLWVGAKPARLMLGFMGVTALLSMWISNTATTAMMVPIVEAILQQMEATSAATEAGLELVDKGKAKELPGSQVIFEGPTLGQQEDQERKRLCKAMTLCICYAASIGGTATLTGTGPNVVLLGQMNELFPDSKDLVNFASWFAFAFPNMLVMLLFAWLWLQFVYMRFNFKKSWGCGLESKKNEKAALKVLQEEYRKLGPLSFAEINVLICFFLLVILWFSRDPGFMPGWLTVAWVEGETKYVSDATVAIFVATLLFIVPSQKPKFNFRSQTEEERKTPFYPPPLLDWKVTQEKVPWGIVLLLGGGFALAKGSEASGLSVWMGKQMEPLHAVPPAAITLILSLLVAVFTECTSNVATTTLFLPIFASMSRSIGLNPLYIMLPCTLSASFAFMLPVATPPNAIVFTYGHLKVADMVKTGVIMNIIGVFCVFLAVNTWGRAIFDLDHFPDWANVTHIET

Structure (SMILES) | IC50 (human NaCT) | Kt for citrate via human NaCT in the presence of Li+ (human NaCT; 10 mM Li+) | [^14C]-Citrate Uptake (cDNA-specific) (human NaCT) | [^14C]-Citrate Uptake, % (human NaCT) | Uptake in human NaCT cDNA-transfected cells vs vector alone (human NaCT; citrate 20 μM, NaCl) | Affinity of human NaCT for citrate less than that of rat NaCT (human NaCT; identical assay conditions) | Kt (Michaelis-Menten constant) for citrate uptake via human NaCT (human NaCT; wild type, absence of Li+) | Uptake in cRNA-injected vs water-injected oocytes (ceNaCT; citrate 40 μM, pH 6.5) | Uptake of [^14C]citrate in ceNaCT cRNA-injected oocytes (ceNaCT; citrate 40 μM, pH 6.5) | pH-dependent stimulation, pH 7.5 to 6.5 (ceNaCT; citrate 250 μM) | Maximal current (Imax) (ceNaCT; testing membrane potential −50 mV) | K0.5, concentration of citrate for half-maximal current (ceNaCT; testing membrane potential −70 mV, pH 6.5) | Maximal current (Imax) (ceNaCT; testing membrane potential −150 mV) | Uptake of radiolabelled succinate in drIndy cRNA-injected vs water-injected oocytes (drIndy) | Succinate uptake at physiological concentrations (rat NaDC3) | Km (hNaDC3) | Michaelis-Menten constant for succinate, NaDC3 (NaDC3)
O=C(O)CC(O)(CC(=O)O)C(=O)O [Citrate] | 688 ± 150 µM | 95 ± 15 µM | 7.7 ± 0.7 pmol/10^6 cells/min | 16% | about 23 fold | about 30 fold | 604 ± 73 µM | about 45 fold | 12.9±0.8 pmol/oocyte/15 min | about 1.25 fold | 12.3±0.6 nA | 34 ± 8 µM | 61.1±2.6 nA |  |  |  | 
O=C(O)CCC(=O)O [Succinate, succinate] | 1920 ± 480 µM |  | 32.1 ± 3.6 pmol/10^6 cells/min | 67% |  |  |  |  |  |  |  |  |  | 12 fold | 0.48±0.01 nmol/10^6 cells/minute | 20 ± 1 µM | 2 to 50 µM
